Laboratory results as given in patent US8198273B2, “Compounds and methods for kinase modulation, and indications therefor” (Plexxikon Inc., priority 2009, dated 2012).

What was measured:
CYP3A4(BFC) = CYP3A4(BFC) (Homo sapiens, UniProt P08684); experiment: CYP3A4(BFC) inhibition (fluorescent substrate); type: in vitro ADME; conditions: read-out: Cyp IC50 3A4(BFC)
In short: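 Compound, from a 100 mM DMSO stock and diluted 1:1 over 10 points in co-factor mix, was incubated at 37° C with enzyme and a known substrate. Decrease in fluorescent product against concentration gave the IC50.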

CYP2C9 = CYP2C9 (Homo sapiens, UniProt P11712); experiment: CYP2C9 inhibition (fluorescent substrate); type: in vitro ADME; conditions: CYP2C9, MFC substrate; read-out: Cyp IC50 2C9
In short: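 First, 100 mM DMSO stocks are diluted into acetonitrile, then twofold through co-factor mix for 10 points. Next, mixtures are preincubated 10 min at 37 °C.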

B-Raf V600E = B-Raf V600E (Homo sapiens, UniProt P15056, V600E); experiment: B-Raf V600E biochemical kinase inhibition (AlphaScreen, biotin-MEK1 substrate); conditions: 100 μM ATP
In short: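 Serial 1:3 dilutions of compound (0.1 mM DMSO stock, eight points) were added first, then ATP to start the reaction at 100 μM final.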

[1] = tested on: SKMEL2 melanoma cells (Ras mutation); experiment: SKMEL2 cell growth inhibition (ATPlite); type: cell-based; conditions: Homo sapiens, SK-MEL-2, 72 h; SKMEL2, 3 days incubation
In short: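 SKMEL2 cells seeded at 2,000 per well overnight, then exposed to an 8-point 1:3 compound titration (top 10 μM final) for 3 days at 37 °C. ATPlite luminescence used as a measure of cell number to derive IC50.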

Chain of CYP2C9 (P11712 whole entry): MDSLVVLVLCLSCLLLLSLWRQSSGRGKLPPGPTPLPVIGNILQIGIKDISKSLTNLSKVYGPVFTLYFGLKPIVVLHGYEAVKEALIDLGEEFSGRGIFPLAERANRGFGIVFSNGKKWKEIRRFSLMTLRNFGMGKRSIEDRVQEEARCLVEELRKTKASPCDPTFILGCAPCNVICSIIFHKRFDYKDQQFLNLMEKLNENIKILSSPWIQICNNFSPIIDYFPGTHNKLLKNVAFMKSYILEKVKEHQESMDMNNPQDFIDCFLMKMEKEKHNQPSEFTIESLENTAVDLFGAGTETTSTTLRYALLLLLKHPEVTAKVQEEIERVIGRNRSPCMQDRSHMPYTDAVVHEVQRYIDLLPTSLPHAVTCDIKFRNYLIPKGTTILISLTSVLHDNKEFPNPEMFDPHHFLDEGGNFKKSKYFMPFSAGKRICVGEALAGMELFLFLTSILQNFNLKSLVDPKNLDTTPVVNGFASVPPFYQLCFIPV
Chain of B-Raf V600E (P15056 whole entry V600E): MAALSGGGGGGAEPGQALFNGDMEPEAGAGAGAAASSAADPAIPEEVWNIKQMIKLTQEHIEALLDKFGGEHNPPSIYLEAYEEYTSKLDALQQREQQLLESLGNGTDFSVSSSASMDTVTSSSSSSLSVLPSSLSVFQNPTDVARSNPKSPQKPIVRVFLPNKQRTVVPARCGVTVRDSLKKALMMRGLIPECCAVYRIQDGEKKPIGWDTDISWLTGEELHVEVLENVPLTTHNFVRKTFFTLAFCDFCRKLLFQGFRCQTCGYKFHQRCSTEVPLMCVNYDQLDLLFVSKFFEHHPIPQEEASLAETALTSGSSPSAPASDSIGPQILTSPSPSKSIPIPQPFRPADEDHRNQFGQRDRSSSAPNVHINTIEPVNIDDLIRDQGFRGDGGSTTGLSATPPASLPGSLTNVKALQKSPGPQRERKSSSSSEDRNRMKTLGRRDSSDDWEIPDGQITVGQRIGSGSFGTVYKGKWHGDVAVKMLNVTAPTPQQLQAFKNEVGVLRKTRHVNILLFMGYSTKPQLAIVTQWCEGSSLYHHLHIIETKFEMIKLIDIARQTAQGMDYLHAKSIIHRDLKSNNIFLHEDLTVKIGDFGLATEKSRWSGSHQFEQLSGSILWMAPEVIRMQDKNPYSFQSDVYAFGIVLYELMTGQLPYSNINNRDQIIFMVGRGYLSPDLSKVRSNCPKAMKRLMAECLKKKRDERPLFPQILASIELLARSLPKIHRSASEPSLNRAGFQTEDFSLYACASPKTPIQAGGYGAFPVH
Chain of CYP3A4(BFC) (P08684 whole entry): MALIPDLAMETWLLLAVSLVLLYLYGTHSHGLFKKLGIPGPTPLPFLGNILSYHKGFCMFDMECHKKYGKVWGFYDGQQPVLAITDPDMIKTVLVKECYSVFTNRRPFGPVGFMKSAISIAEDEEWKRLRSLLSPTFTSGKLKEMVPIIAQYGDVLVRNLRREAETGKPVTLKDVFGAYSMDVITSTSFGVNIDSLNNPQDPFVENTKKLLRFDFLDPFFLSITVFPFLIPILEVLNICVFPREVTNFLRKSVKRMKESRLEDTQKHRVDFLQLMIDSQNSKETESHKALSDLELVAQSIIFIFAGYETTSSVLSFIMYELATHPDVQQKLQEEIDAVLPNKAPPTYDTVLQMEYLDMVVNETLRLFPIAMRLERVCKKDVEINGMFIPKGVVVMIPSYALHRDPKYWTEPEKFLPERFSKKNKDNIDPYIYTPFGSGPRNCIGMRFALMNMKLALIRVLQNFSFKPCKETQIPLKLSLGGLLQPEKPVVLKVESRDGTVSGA

SMILES	IC50 (CYP3A4(BFC)) [µM]	IC50 (CYP2C9) [µM]	IC50 (B-Raf V600E) [µM]	IC50 [1] [µM]
CCCS(=O)(=O)Nc1ccc(F)c(C(=O)c2c[nH]c3ncc(-c4ccc(Cl)nc4)cc23)c1F [P-2154, Propane-1-sulfonic acid {3-[5-(6-chloro-pyridin-3-yl)-1H-pyrrolo[2,3-b]pyridine-3-carbonyl]-2,4-difluoro-phenyl}-amide]	> 10	5 to 10	< 0.1	> 10
CCCS(=O)(=O)Nc1ccc(F)c(C(=O)c2c[nH]c3ncc(-c4cnc(C)nc4)cc23)c1F [P-2211, Propane-1-sulfonic acid {2,4-difluoro-3-[5-(2-methyl-pyrimidin-5-yl)-1H-pyrrolo[2,3-b]pyridine-3-carbonyl]-phenyl}-amide]	> 10	> 10	< 0.01	> 10
CCCS(=O)(=O)Nc1ccc(F)c(C(=O)c2c[nH]c3ncc(-c4cn[nH]c4)cc23)c1F [P-2174, Propane-1-sulfonic acid {2,4-difluoro-3-[5-(1H-pyrazol-4-yl)-1H-pyrrolo[2,3-b]pyridine-3-carbonyl]-phenyl}-amide]	> 10	< 5	< 0.01	< 10
COc1ccnc2[nH]cc(C(=O)c3c(F)ccc(NS(=O)(=O)c4cc(F)ccc4F)c3F)c12 [P-2022, N-[2,4-Difluoro-3-(4-methoxy-1H-pyrrolo[2,3-b]pyridine-3-carbonyl)-phenyl]-2,5-difluoro-benzenesulfonamide]	–	5 to 10	< 0.01	> 10
COc1cnc2[nH]cc(C(=O)c3c(F)ccc(NS(=O)(=O)c4ccccc4F)c3F)c2c1 [P-2009, N-[2,4-Difluoro-3-(5-methoxy-1H-pyrrolo[2,3-b]pyridine-3-carbonyl)-phenyl]-2-fluoro-benzenesulfonamide]	> 10	> 10	< 0.01	> 10
Cc1cnc2[nH]cc(C(=O)c3c(F)ccc(NS(=O)(=O)c4cc(F)ccc4F)c3F)c2c1 [P-2015, N-[2,4-Difluoro-3-(5-methyl-1H-pyrrolo[2,3-b]pyridine-3-carbonyl)-phenyl]-2,5-difluoro-benzenesulfonamide]	> 10	> 10	< 0.01	> 10
CCCS(=O)(=O)Nc1ccc(F)c(C(=O)c2c[nH]c3ncc(-c4ccc(N)nc4)cc23)c1F [P-2214, Propane-1-sulfonic acid {3-[5-(6-amino-pyridin-3-yl)-1H-pyrrolo[2,3-b]pyridine-3-carbonyl]-2,4-difluoro-phenyl}-amide]	> 10	> 10	< 0.01	> 10
CCCS(=O)(=O)Nc1ccc(F)c(C(=O)c2c[nH]c3ncc(-c4ccc(S(=O)(=O)N(C)C)cc4)cc23)c1F [P-2185, 4-{3-[2,6-Difluoro-3-(propane-1-sulfonylamino)-benzoyl]-1H-pyrrolo[2,3-b]pyridin-5-yl}-N,N-dimethyl-benzenesulfonamide]	> 10	< 5	< 0.01	> 10
CCCS(=O)(=O)Nc1ccc(F)c(C(=O)c2c[nH]c3ncc(-c4cnc(N5CCCC5)nc4)cc23)c1F [P-2219, Propane-1-sulfonic acid {2,4-difluoro-3-[5-(2-pyrrolidin-1-yl-pyrimidin-5-yl)-1H-pyrrolo[2,3-b]pyridine-3-carbonyl]-phenyl}-amide]	–	> 10	< 0.1	> 10
CCCS(=O)(=O)Nc1ccc(F)c(C(=O)c2c[nH]c3ncc(-c4ccc(S(=O)(=O)NC5CC5)cc4)cc23)c1F [P-2168, N-Cyclopropyl-4-{3-[2,6-difluoro-3-(propane-1-sulfonylamino)-benzoyl]-1H-pyrrolo[2,3-b]pyridin-5-yl}-benzenesulfonamide]	–	< 5	< 0.01	< 5
O=C(c1c(F)ccc(NS(=O)(=O)c2c(F)cccc2F)c1F)c1c[nH]c2nccc(Cl)c12 [P-2033, N-[3-(4-Chloro-1H-pyrrolo[2,3-b]pyridine-3-carbonyl)-2,4-difluoro-phenyl]-2,6-difluoro-benzenesulfonamide]	> 10	> 10	< 0.01	> 10
N#Cc1cnc2[nH]cc(C(=O)c3cccc(NS(=O)(=O)c4cccc(F)c4)c3F)c2c1 [P-2053, N-[3-(5-Cyano-1H-pyrrolo[2,3-b]pyridine-3-carbonyl)-2-fluoro-phenyl]-3-fluoro-benzenesulfonamide]	> 10	5 to 10	< 0.01	> 10
CCCS(=O)(=O)Nc1ccc(F)c(C(=O)c2c[nH]c3ncc(-c4ccc(S(C)(=O)=O)cc4)cc23)c1F [P-2183, Propane-1-sulfonic acid {2,4-difluoro-3-[5-(4-methanesulfonyl-phenyl)-1H-pyrrolo[2,3-b]pyridine-3-carbonyl]-phenyl}-amide]	> 10	5 to 10	< 0.01	> 10

Other lines, results leading:

IC50 (CYP3A4(BFC)) [µM]	IC50 (CYP2C9) [µM]	IC50 (B-Raf V600E) [µM]	IC50 [1] [µM]	SMILES
> 10	< 5	< 0.01	> 10	N#Cc1cnc2[nH]cc(C(=O)c3c(F)ccc(NS(=O)(=O)c4ccccc4)c3F)c2c1 [P-2046, N-[3-(5-Cyano-1H-pyrrolo[2,3-b]pyridine-3-carbonyl)-2,4-difluoro-phenyl]-benzenesulfonamide]
5 to 10	5 to 10	< 0.01	< 20	CCCS(=O)(=O)Nc1ccc(F)c(C(=O)c2c[nH]c3ncc(C#CCOC)cc23)c1F [P-2239, Propane-1-sulfonic acid {2,4-difluoro-3-[5-(3-methoxy-prop-1-ynyl)-1H-pyrrolo[2,3-b]pyridine-3-carbonyl]-phenyl}-amide]
5 to 10	> 10	< 0.01	> 10	O=C(c1c(F)ccc(NS(=O)(=O)c2cccc(F)c2)c1F)c1c[nH]c2nccc(Cl)c12 [P-2019, N-[3-(4-Chloro-1H-pyrrolo[2,3-b]pyridine-3-carbonyl)-2,4-difluoro-phenyl]-3-fluoro-benzenesulfonamide]
> 10	< 5	< 0.01	> 10	CCCS(=O)(=O)Nc1ccc(F)c(C(=O)c2c[nH]c3ncc(-c4ccc(C)nc4)cc23)c1F [P-2213, Propane-1-sulfonic acid {2,4-difluoro-3-[5-(6-methyl-pyridin-3-yl)-1H-pyrrolo[2,3-b]pyridine-3-carbonyl]-phenyl}-amide]
> 10	–	< 0.01	> 10	N#Cc1cnc2[nH]cc(C(=O)c3cccc(NS(=O)(=O)c4ccccc4)c3F)c2c1 [P-2056, N-[3-(5-Cyano-1H-pyrrolo[2,3-b]pyridine-3-carbonyl)-2-fluoro-phenyl]-benzenesulfonamide]
> 10	> 10	< 0.01	> 10	N#Cc1ccnc2[nH]cc(C(=O)c3c(F)ccc(NS(=O)(=O)c4ccccc4F)c3F)c12 [P-2020, N-[3-(4-Cyano-1H-pyrrolo[2,3-b]pyridine-3-carbonyl)-2,4-difluoro-phenyl]-2-fluoro-benzenesulfonamide]
5 to 10	> 10	< 0.01	> 10	O=C(c1c(F)ccc(NS(=O)(=O)c2cc(F)ccc2F)c1F)c1c[nH]c2nccc(Cl)c12 [P-2018, N-[3-(4-Chloro-1H-pyrrolo[2,3-b]pyridine-3-carbonyl)-2,4-difluoro-phenyl]-2,5-difluoro-benzenesulfonamide]
5 to 10	5 to 10	< 0.01	> 10	N#Cc1ccnc2[nH]cc(C(=O)c3c(F)ccc(NS(=O)(=O)c4cccnc4)c3F)c12 [P-2077, Pyridine-3-sulfonic acid [3-(4-cyano-1H-pyrrolo[2,3-b]pyridine-3-carbonyl)-2,4-difluoro-phenyl]-amide]
5 to 10	5 to 10	< 0.01	< 10	CCCS(=O)(=O)Nc1ccc(F)c(C(=O)c2c[nH]c3ncc(-c4cncnc4)cc23)c1F [P-2162, Propane-1-sulfonic acid [2,4-difluoro-3-(5-pyrimidin-5-yl-1H-pyrrolo[2,3-b]pyridine-3-carbonyl)-phenyl]-amide]
> 10	5 to 10	< 0.01	< 5	CCCS(=O)(=O)Nc1ccc(F)c(C(=O)c2c[nH]c3ncc(-c4ccc(OCCCN(C)C)nc4)cc23)c1F [P-2178, Propane-1-sulfonic acid (3-{5-[6-(3-dimethylamino-propoxy)-pyridin-3-yl]-1H-pyrrolo[2,3-b]pyridine-3-carbonyl}-2,4-difluoro-phenyl)-amide]
> 10	> 10	< 0.01	> 10	N#Cc1cnc2[nH]cc(C(=O)c3c(F)ccc(NS(=O)(=O)c4ccccc4F)c3F)c2c1 [P-2011, N-[3-(5-Cyano-1H-pyrrolo[2,3-b]pyridine-3-carbonyl)-2,4-difluoro-phenyl]-2-fluoro-benzenesulfonamide]
> 10	> 10	< 0.01	< 20	CCCS(=O)(=O)Nc1cccc(C(=O)c2c[nH]c3ncc(-c4cnc(OC)nc4)cc23)c1F [P-2407, Propane-1-sulfonic acid {2-fluoro-3-[5-(2-methoxy-pyrimidin-5-yl)-1H-pyrrolo[2,3-b]pyridine-3-carbonyl]-phenyl}-amide]
